Assay results from ChEMBL document CHEMBL1152031, “Substituted N,N-diphenyl ureas as potent inhibitors of acyl-CoA:Cholesterol acyltransferase (ACAT)” (Bioorg Med Chem Lett, 1993).

What was measured:
[1] = target: O-acyltransferase (Oryctolagus cuniculus, UniProt G1SFD9); experiment: In vitro inhibition of intestinal Acyl coenzyme A:cholesterol acyltransferase in cholesterol-fed rabbits.
[2] = test system: Rattus norvegicus; experiment: Tested in vivo for the ability to lower the total plasma cholesterol (TC) in an chronic peanut oil/cholesterol/cholic Acid (APCC) model at the dose of 30 mg/kg; assay type: functional

Chain of O-acyltransferase (G1SFD9 1-524): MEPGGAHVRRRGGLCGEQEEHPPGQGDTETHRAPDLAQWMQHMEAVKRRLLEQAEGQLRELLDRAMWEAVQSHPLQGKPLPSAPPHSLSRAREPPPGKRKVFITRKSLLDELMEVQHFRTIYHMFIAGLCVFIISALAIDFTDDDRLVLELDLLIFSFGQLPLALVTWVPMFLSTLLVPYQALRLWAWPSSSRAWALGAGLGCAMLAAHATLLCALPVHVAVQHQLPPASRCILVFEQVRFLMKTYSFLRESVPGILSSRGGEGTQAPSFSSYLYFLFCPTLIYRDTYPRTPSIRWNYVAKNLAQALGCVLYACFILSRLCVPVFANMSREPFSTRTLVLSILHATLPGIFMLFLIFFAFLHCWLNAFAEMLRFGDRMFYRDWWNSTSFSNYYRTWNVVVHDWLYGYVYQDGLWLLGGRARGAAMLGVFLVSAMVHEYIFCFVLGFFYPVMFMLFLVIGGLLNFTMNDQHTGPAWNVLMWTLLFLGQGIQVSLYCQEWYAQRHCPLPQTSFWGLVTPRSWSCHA

Compound | IC50 [1] [nM] | Delta TC [2] [%]
CCCCCCCCCCCCCCc1ccc(NC(=O)Nc2c(C(C)C)cccc2C(C)C)cc1 | 500 | -25
CCc1ccc(NC(=O)Nc2c(C(C)C)cccc2C(C)C)cc1 | 100 | –
CCCCCCCCCCc1ccc(NC(=O)Nc2c(C(C)C)cccc2C(C)C)cc1 | 13 | -25
CCCCCCCc1ccc(NC(=O)Nc2c(C(C)C)cccc2C(C)C)cc1 | 19 | -21
Cc1ccc(NC(=O)Nc2c(C(C)C)cccc2C(C)C)cc1 | 250 | –
CCCc1ccc(NC(=O)Nc2c(C(C)C)cccc2C(C)C)cc1 | 38 | –
CCCCCc1ccc(NC(=O)Nc2c(C(C)C)cccc2C(C)C)cc1 | 32 | –
CCCCCCCCCCCCCc1ccc(NC(=O)Nc2c(C(C)C)cccc2C(C)C)cc1 | 11 | -70
CCCCCCCCCCCCc1ccc(NC(=O)Nc2c(C(C)C)cccc2C(C)C)cc1 | 15 | -47
CCCCCCCCCCCc1ccc(NC(=O)Nc2c(C(C)C)cccc2C(C)C)cc1 | 9 | -29
CCCCc1ccc(NC(=O)Nc2c(C(C)C)cccc2C(C)C)cc1 | 29 | -12
CC(C)c1cccc(C(C)C)c1NC(=O)Nc1ccc(C(C)(C)C)cc1 | 168 | -10
CCCCCCc1ccc(NC(=O)Nc2c(C(C)C)cccc2C(C)C)cc1 | 26 | -18
CCCCCCCCc1ccc(NC(=O)Nc2c(C(C)C)cccc2C(C)C)cc1 | 11 | -29
CC(C)c1ccc(NC(=O)Nc2c(C(C)C)cccc2C(C)C)cc1 | 66 | –
CCCCCCCCCc1ccc(NC(=O)Nc2c(C(C)C)cccc2C(C)C)cc1 | 9 | -8
CCCCCCCN(Cc1ccc(CC(C)(C)C)cc1)C(=O)Nc1ccc(F)cc1F [CL-277082] | – | -54
